± gives the expanded uncertainty stated by the source.

We go through 3 compounds from the NIST ThermoML archive (doi:10.1016/j.jct.2013.08.020).

For series [1] the following is noted: Liquid; for vapor or sublimation pressure: Ebulliometric method (Recirculating still).
The nature of series [2]: refractive index (Na D-line) (dimensionless). The settings on record: 298.15 K; 101 kPa; Liquid; Standard Abbe refractometry.

For `O` [water], the “vapor or sublimation pressure” value in series [1] (373.15 K) amounted to 101.3 ± 0.5 kPa. The refractive index in series [2] is given as 1.33237 ± 0.00032.

As for `OCCCO` [propan-1,3-diol], in series [1] (298.15 K, 101 kPa, Vibrating tube method), the mass density is listed as 1049.68 ± 0.27 kg/m3. Moreover, the refractive index in series [2] amounted to 1.43851 ± 0.00037.

Consider `CCO` [ethanol], for which the “vapor or sublimation pressure” value in series [1] (351.45 K) was 101.3 ± 0.5 kPa. Moreover, the refractive index in series [2] worked out at 1.35924 ± 0.00032.
